{"source": "paper PMC11208149", "about": "“Structure of plant photosystem I in a native assembly state defines PsaF as a regulatory checkpoint” (Nature Plants, 2024)", "key": {"mature PSI": {"target": "T1, mature PSI (Avena sativa, UniProt A0A3G1AUL2+A0A3G1AZK6)", "T1 construct": "gene psaA; native PSI-LHCI complex purified from mature green leaves, detergent-solubilised; with Photosystem I iron-sulfur center; Photosystem I reaction center subunit II, chloroplastic; Photosystem I reaction center subunit IV, chloroplastic; Photosystem I reaction center subunit III, chloroplastic; Photosystem I reaction center subunit V, chloroplastic; Photosystem I reaction center subunit VI, chloroplastic; Photosystem I reaction center subunit VIII; Photosystem I reaction center subunit IX; Photosystem I reaction center subunit psaK, chloroplastic; Photosystem I reaction center subunit XI, chloroplastic; Photosystem I reaction center subunit N, chloroplastic", "T1 sequence (A0A3G1AUL2 1-750)": "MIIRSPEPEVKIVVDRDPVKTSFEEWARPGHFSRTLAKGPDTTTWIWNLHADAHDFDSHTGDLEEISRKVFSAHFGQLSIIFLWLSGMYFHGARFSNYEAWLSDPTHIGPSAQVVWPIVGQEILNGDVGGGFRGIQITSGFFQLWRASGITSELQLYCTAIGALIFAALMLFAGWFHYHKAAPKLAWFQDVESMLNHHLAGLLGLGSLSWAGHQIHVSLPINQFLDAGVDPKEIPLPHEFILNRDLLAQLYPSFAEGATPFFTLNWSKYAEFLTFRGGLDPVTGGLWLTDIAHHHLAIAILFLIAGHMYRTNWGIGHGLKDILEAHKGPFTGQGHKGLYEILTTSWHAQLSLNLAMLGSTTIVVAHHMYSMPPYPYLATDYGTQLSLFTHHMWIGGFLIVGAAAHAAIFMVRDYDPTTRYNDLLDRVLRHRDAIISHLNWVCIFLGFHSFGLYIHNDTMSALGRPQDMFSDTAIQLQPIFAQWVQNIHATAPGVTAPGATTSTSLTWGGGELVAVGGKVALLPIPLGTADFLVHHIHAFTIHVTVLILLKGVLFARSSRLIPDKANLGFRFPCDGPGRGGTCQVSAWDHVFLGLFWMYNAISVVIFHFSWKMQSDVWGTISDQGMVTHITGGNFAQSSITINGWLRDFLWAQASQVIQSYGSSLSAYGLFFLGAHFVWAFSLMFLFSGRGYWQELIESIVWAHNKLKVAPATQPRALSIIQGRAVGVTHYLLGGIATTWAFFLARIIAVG", "T1 sequence (A0A3G1AZK6 1-734)": "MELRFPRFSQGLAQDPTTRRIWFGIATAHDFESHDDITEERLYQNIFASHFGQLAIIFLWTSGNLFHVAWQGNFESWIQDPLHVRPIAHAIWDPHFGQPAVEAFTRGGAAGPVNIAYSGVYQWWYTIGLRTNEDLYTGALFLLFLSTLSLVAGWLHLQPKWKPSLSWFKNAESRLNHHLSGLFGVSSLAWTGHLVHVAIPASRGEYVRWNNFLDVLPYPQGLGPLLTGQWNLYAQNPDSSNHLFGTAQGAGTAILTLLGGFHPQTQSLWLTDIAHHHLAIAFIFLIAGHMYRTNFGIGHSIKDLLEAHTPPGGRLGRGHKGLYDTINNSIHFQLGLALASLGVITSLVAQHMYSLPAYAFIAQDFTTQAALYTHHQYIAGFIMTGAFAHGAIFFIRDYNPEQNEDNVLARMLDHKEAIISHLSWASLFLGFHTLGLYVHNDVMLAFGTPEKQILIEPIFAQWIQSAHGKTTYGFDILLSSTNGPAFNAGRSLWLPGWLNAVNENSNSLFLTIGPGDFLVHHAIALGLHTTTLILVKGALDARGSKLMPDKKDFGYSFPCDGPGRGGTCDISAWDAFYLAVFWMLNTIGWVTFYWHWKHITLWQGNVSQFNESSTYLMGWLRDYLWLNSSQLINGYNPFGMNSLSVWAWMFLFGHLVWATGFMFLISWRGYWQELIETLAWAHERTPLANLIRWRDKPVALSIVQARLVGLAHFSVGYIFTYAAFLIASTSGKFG", "T1 sequence (A0A3G1ATU7 2-81 partner)": "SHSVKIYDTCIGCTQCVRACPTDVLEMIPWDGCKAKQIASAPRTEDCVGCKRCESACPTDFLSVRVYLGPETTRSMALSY", "T1 sequence (A0A3G1AZM6 1-36 partner)": "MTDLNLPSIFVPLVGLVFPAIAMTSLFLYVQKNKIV", "T1 sequence (A0A3G1AZP2 1-42 partner)": "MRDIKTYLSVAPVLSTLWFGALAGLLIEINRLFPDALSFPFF", "assay": "cryo-EM structure ([…] Å)", "assay_type": "binding"}, "[1]": {"target": "T2, pre-PSI-1 (PSI assembly intermediate) (Avena sativa, UniProt A0A3G1AUL2+A0A3G1AZK6)", "T2 construct": "gene psaA; native eight-subunit complex from thylakoids of greening seedlings (10 h light), DDM-solubilised; lacks PsaF, PsaG, PsaJ, PsaK, PsaN and LHCI; with Photosystem I iron-sulfur center; Photosystem I reaction center subunit II, chloroplastic; Photosystem I reaction center subunit IV, chloroplastic; Photosystem I reaction center subunit VI, chloroplastic; Photosystem I reaction center subunit VIII; Photosystem I reaction center subunit XI, chloroplastic", "T2 sequence (A0A3G1AUL2 1-750)": "as the sequence (A0A3G1AUL2 1-750) above", "T2 sequence (A0A3G1AZK6 1-734)": "as the sequence (A0A3G1AZK6 1-734) above", "T2 sequence (A0A3G1ATU7 2-81 partner)": "as the sequence (A0A3G1ATU7 2-81 partner) above", "T2 sequence (A0A3G1AZM6 1-36 partner)": "as the sequence (A0A3G1AZM6 1-36 partner) above", "assay": "cryo-EM structure ([…] Å)", "assay_type": "binding", "details": "native cofactor; site PQN844 of PsaA"}}}
{"smiles": "CC1=C(/C=C/C(C)=C/C=C/C(C)=C/C=C/C=C(C)/C=C/C=C(C)/C=C/C2=C(C)CCCC2(C)C)C(C)(C)CCC1", "note": "[BCR, β-carotene]", "values": [{"measurement": "cryo-EM structure (2.2 Å)", "setting": "mature PSI; native pigment, site BCR856, near the PSI core - LHCI interface", "result": "the head group of β-carotene BCR856 resides in the mature structure"}]}
{"smiles": "CC1=C(C/C=C(\\C)CCC[C@H](C)CCC[C@H](C)CCCC(C)C)C(=O)c2ccccc2C1=O", "note": "[PQN, phylloquinone]", "values": [{"measurement": "cryo-EM structure (2.1 Å)", "setting": "[1]", "result": "phylloquinone PQN844 (PsaA) shows an altered conformation of the isoprenoid chain"}, {"measurement": "cryo-EM structure (2.2 Å)", "setting": "mature PSI; native cofactor, site PQN844 of PsaA", "result": "phylloquinone PQN844 (PsaA) shows an altered conformation of the isoprenoid chain"}]}
